What was measured:
IRAK4 kinase = IRAK4 kinase (Homo sapiens (Human), UniProt Q9NWZ3); assay: IRAK4 kinase activity test (KinEASE-STK S1 HTRF kit); type: biochemical; details: 2.5 nM IRAK4 kinase, 7 μM ATP, 37° C. 120 min
Method in brief: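 Human IRAK4 (2.5 nM) with 1 μM biotinylated peptide substrate and 7 μM ATP, incubated 120 min at 37 °C. HTRF read-out (Eu anti-phospho-Ser/Thr antibody, XL665-streptavidin; 665/620 nm ratio) after 1 h at room temperature. IC50 from inhibition relative to control by non-linear fit of log concentration.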

[1] = molecular target: IRAK4 protein in THP-1 cells (Homo sapiens (Human), UniProt Q9NWZ3); assay: Degradation of IRAK4 in THP-1 cells, human IRAK4 AlphaLISA assay; type: cell-based; details: 24 h incubation
Method in brief: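 THP-1 cells, after overnight plating, exposed 24 h at 37 °C to compound at 0.03-3000 nM final. Lysate IRAK4 read by Western blot and by AlphaLISA (acceptor beads 10 μg/mL, biotin anti-IRAK4 1 nM, donor beads 40 μg/mL, 23 °C). DC50 and Dmax from log concentration-response fit.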

[2] = system: IL-6 production in LPS-induced human whole blood; assay: IL-6 secreted by LPS-induced normal human whole blood PBMCs (IL-6 AlphaLISA); type: cell-based; details: compound 20 h, then LPS 100 ng/mL 5 h
Description: Fresh normal human whole blood (healthy people from 22-50 years of age, freshly collected blood) anticoagulated with heparin sodium was plated onto a 96-well clear cell plate (Labserv, 310109008) at 190 μL/well, and 10 μL of diluted compound solution was then added to corresponding wells, such that the final concentration of the compound fell within the range of 10-20,000 nM. The final concentration of dimethyl sulfoxide was 0.1%. The compound-treated cell plate was sealed with a plate-sealing membrane. After the plate was incubated in a 37° C., 5% carbon dioxide incubator for 20 h, 10 μL of LPS (0111:B4) (Sigma, L4391) was added, making a final concentration of 100 ng/mL. […]
IL-6 standard solutions with different concentrations, ranging from […], were prepared by following the instructions for use of the product, 2 μL of each of the IL-6 standard solutions and test samples of cell supernatant were added to a white 384-well plate (PerkinElmer, 6007299), and 8 μL of a mixed solution of 5× anti-IL-6 receptor beads (PerminElmer, final concentration of 10 μg/mL) and biotin-labeled anti-IL-6 antibody (PerminElmer, final concentration of 1 nM) was then added to each well. […] After the incubation was complete, AlphaLISA signal values were measured on a microplate reader EnVision (PerkinElmer, 2105) in the AlphaScreen standard mode. […]

[3] = system: IL-6 production in LPS-induced human PBMCs; assay: IL-6 secreted by LPS-induced human PBMCs (IL-6 AlphaLISA); type: cell-based; details: PBMC, compound 1 h or 20 h, then LPS 100 ng/mL 5 h, read-out: hPBMC IC50
Description: Frozen human PBMCs (Milestone, PB010C) were thawed and resuspended in RPMI 1640 medium (Gibco, A1049101) supplemented with 10%/o fetal bovine serum (Gibco, 10099141), 100 U/mL penicillin and 100 sg/mL streptomycin (Gibco, 15140122). On the same day. PBMCs were plated onto a 96-well clear cell plate (Labserv, 310109008) at 150 μL/well, with a cell density of 2×10^5 cells/well. Then 50 μL of diluted compound solution was added to corresponding wells with cells, such that the final concentration of the compound fell within the range of 0.026-10,000 nM. The final concentration of DMSO was 0.25%. […]
IL-6 standard solutions with different concentrations, ranging from […], were prepared by following the instructions for use of the product, 2 μL of each of the IL-6 standard solutions and test samples of cell supernatant were added to a white 384-well plate (PerkinElmer, 6007299), and 8 μL of a mixed solution of 5×anti-IL-6 receptor beads (final concentration of 10 μg/mL) and biotin-labeled anti-IL-6 antibody (final concentration of 1 nM) was then added to each well. […] After the incubation was complete, AlphaLISA signal values were measured on a microplate reader EnVision (PerkinElmer, 2105) in the AlphaScreen standard mode. […] The inhibition rate of the compound at each concentration was calculated by comparing the IL-6 concentration with that of the control group. […]

IRAK4 kinase, sequence (Q9NWZ3 whole entry): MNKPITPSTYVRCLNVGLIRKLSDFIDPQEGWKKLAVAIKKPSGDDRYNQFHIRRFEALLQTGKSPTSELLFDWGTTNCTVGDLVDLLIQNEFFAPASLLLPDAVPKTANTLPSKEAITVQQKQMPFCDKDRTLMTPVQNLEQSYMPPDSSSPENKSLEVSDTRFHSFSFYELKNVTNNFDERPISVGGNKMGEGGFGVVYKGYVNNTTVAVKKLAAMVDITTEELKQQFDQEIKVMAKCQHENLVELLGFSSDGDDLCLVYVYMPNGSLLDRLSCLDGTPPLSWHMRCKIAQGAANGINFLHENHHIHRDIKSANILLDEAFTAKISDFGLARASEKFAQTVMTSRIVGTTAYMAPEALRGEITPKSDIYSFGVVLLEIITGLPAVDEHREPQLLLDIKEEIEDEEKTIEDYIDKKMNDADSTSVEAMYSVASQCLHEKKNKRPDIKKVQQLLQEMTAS
IRAK4 protein in THP-1 cells, sequence (Q9NWZ3 whole entry): as above

O=C1CCN(c2cc(C(=O)N3CCC4(CCC(CN5CCC(n6cc(NC(=O)c7cnn8ccc(N9C[C@H]%10C[C@@H]9CO%10)nc78)c(C(F)F)n6)CC5)CC4)CC3)ccc2Cl)C(=O)N1 [Example 1, 5-((1R,4R)-2-oxa-5-azabicyclo[2.2.1]heptan-5-yl)-N-(1-(1-((3-(4-chloro-3-(2,4-dioxotetrahydropyrimidin-1(2H)-yl)benzoyl)-3-azaspiro[5.5]undecan-9-yl)methyl)piperidin-4-yl)-3-(difluoromethyl)-1H-pyrazol-4-yl)pyrazolo[1,5-a]pyrimidine-3-carboxamide]
IC50 (IRAK4 kinase): 30.3 nM | DC50 [1]: 3.7 nM | Dmax [1]: 90% | IC50 [2]: 287 nM | IC50 [3]: 3.1 nM

O=C1CCN(c2cc(C(=O)N3CCC4(CCN(C[C@H]5CC[C@H](n6cc(NC(=O)c7cnn8ccc(N9C[C@H]%10C[C@@H]9CO%10)nc78)c(C(F)F)n6)CC5)CC4)CC3)ccc2Cl)C(=O)N1 [Example 2, 5-((1R,4R)-2-oxa-5-azabicyclo[2.2.1]heptan-5-yl)-N-(1-((1r,4R)-4-((9-(4-chloro-3-(2,4-dioxotetrahydropyrimidin-1(2H)-yl)benzoyl)-3,9-diazaspiro[5.5]undecan-3-yl)methyl)cyclohexyl)-3-(difluoromethyl)-1H-pyrazol-4-yl)pyrazolo[1,5-a]pyrimidine-3-carboxamide]
IC50 (IRAK4 kinase): 15.5 nM | DC50 [1]: 1.8 nM | Dmax [1]: 95.8% | IC50 [2]: 246 nM | IC50 [3]: 2.2 nM

COc1ccc(C(=O)N2CCC3(CCN(CCCCN4CCC(n5cc(NC(=O)c6cnn7ccc(N8CCOCC8)nc67)c(C(F)F)n5)CC4)CC3)CC2)cc1N1CCC(=O)NC1=O [Example 61, N-(3-(difluoromethyl)-1-(1-(4-(9-(3-(2,4-dioxotetrahydropyrimidin-1(2H)-yl)-4-methoxybenzoyl)-3,9-diazaspiro[5.5]undecan-3-yl)butyl)piperidin-4-yl)-1H-pyrazol-4-yl)-5-morpholinopyrazolo[1,5-a]pyrimidine-3-carboxamide]
IC50 (IRAK4 kinase): 9.06 nM | DC50 [1]: 29 nM | Dmax [1]: 87.9%

O=C1CCN(c2cc(C(=O)N3CCC4(CCC(CN5CCC(n6cc(NC(=O)c7cnn8ccc(N9CCS(=O)(=O)CC9)nc78)c(C(F)F)n6)CC5)CC4)CC3)ccc2Cl)C(=O)N1 [Example 63, N-(1-(1-((3-(4-chloro-3-(2,4-dioxotetrahydropyrimidin-1(2H)-yl)benzoyl)-3-azaspiro[5.5]undecan-9-yl)methyl)piperidin-4-yl)-3-(difluoromethyl)-1H-pyrazol-4-yl)-5-(1,1-dioxothiomorpholinyl)pyrazolo[1,5-a]pyrimidine-3-carboxamide]
IC50 (IRAK4 kinase): 36.2 nM | DC50 [1]: 9.18 nM | Dmax [1]: 79.3%

N[C@H]1CCCN(c2ccn3ncc(C(=O)Nc4cn(C5CCN(CC6CCC7(CC6)CCN(C(=O)c6ccc(Cl)c(N8CCC(=O)NC8=O)c6)CC7)CC5)nc4C(F)F)c3n2)C1 [Example 64, (S)-5-(3-aminopiperidin-1-yl)-N-(1-(1-((3-(4-chloro-3-(2,4-dioxotetrahydropyrimidin-1(2H)-yl)benzoyl)-3-azaspiro[5.5]undecan-9-yl)methyl)piperidin-4-yl)-3-(difluoromethyl)-1H-pyrazol-4-yl)pyrazolo[1,5-a]pyrimidine-3-carboxamide]
IC50 (IRAK4 kinase): 5.93 nM | DC50 [1]: 7.47 nM | Dmax [1]: 96.1%

Source: patent US20240368194A1, “IRAK4 DEGRADATION AGENT, AND PREPARATION METHOD THEREFOR AND USE THEREOF” (SHANGHAI LEADINGTAC PHARMACEUTICAL CO. LTD., priority 2021, published 2024)
